The text below walks through data of ChEMBL document CHEMBL6134780, “Halogenated retinoid derivatives as dual RARα and RXRα modulators for treating acute promyelocytic leukemia cells” (Eur J Med Chem, 2024).

Assay [1] has as its system NB-4. Put plainly: Antiproliferative activity against human NB4 cells assessed as inhibition of cell viability up to 3.5 uM incubated for 3 days by CCK8 assay relative to control. The class given is functional. Conditions: time 3 day. Background: Tetrazolium dyes change colour on reduction, which living cells bring about.
Assay [2] concerns NB-4. The experiment in a line: Induction of cell differentiation in human NB4 cells at 0.5 uM incubated for 4 to 6 days by CD11b staining based flow cytometric analysis. The class given is functional. Particulars: time 4-6 day. On the technique in general: A flow cytometer gives signals particle by particle.
For assay [3], the system named is NB-4. Put plainly: Induction of cell differentiation in human NB4 cells assessed as NBT positive cells at 0.5 uM incubated for 6 days by Nitro Blue tetrazolium chloride based microscopic analysis (reference value: 0 %). In kind it is functional. Conditions: time 6 day.
Assay [4] deals with NB-4. Put plainly: Cell cycle arrest in human NB4 cells assessed as accumulation of cells at S phase at 0.5 uM incubated for 6 days for DAPI staining based flow cytometric analysis (reference value: 27 %). The class given is functional. Conditions: time 6 day.
In assay [5] the test system is NB-4. The experiment in a line: Induction of apoptosis in human NB4 cells assessed as necrotic cells at 1 uM incubated for 24 hrs by Annexin V-FITC/PI staining based flow cytometric analysis (reference value: 0.07 %). The class given is functional.
Assay [6] has as its system K562. The experiment in a line: Induction of apoptosis in human K562 cells assessed as early apoptotic cells at 1 uM incubated for 24 hrs by Annexin V-FITC/PI staining based flow cytometric analysis (reference value: 0.91 %). In kind it is functional.
The target in assay [7] is T1, Retinoic acid receptor beta (Homo sapiens) (UniProt P10826).
T1 sequence (whole entry): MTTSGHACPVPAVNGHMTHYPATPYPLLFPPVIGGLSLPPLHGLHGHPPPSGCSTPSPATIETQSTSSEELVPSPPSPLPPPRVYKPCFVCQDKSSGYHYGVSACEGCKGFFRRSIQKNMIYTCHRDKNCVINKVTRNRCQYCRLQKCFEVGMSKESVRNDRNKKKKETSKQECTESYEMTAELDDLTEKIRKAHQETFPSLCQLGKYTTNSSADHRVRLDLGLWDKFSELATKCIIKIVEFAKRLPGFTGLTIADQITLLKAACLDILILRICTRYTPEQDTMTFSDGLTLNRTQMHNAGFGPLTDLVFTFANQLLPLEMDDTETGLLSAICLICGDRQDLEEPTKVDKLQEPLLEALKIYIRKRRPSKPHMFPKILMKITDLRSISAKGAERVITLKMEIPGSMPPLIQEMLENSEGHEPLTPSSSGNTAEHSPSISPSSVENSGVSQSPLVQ
Put plainly: Agonist activity at Gal4-fused full length RARbeta LBD (unknown origin) transfected in HEK293T cells co-transfected with pG5luc reporter and Renilla-luc at 0.1 to 1 uM incubated for 12 hrs by luciferase reporter gene assay. In kind it is cell-based. Particulars: dose 0.1-1 µM. Background: In a reporter assay the amount or activity of a reporter protein is the signal.

Assay [8] has as its system NB4. Put plainly: Induction of PML-RARalpha degradation in human NB4 cells at 0.5 uM incubated for 6 days by Western blot analysis. Particulars: time 6.0 day. The class given is cell-based.
Assay [9] has as its system NB-4. The experiment in a line: Cell cycle arrest in human NB4 cells assessed as increase in PLK1 expression at 2 uM incubated for 3 to 24 hrs by Western blot analysis. In kind it is functional, cell-based. Particulars: time 3-24 hrs.
Assay [10] deals with ATRA-resistant NB4-LR2. The experiment in a line: Cell cycle arrest in human ATRA-resistant NB4-LR2 cells assessed as increase in cyclin B1 expression at 2 uM incubated for 3 to 24 hrs by Western blot analysis. The class given is functional, cell-based. Conditions: time 3-24 hrs.
The subject of assay [11] is NB-4. Put plainly: Cell cycle arrest in human NB4 cells assessed as accumulation of cells at G0/G1 phase at 1 uM incubated for 24 hrs by DAPI staining based flow cytometric analysis (reference value: 48 %). The class given is functional.
Assay [12] has as its system NB-4. The experiment in a line: Cell cycle arrest in human NB4 cells assessed as accumulation of cells at S phase at 1 uM incubated for 24 hrs by DAPI staining based flow cytometric analysis (reference value: 26 %). In kind it is functional.
Assay [13] in a line: Cell cycle arrest in human ATRA-resistant NB4-LR2 cells assessed as accumulation of cells at sub-G1 phase at 0.5 uM incubated for 24 hrs by DAPI staining based flow cytometric analysis (reference value: 12 %). In kind it is functional.
The nature of assay [14]: Cell cycle arrest in human ATRA-resistant NB4-LR2 cells assessed as accumulation of cells at G0/G1 phase at 2 uM incubated for 12 hrs by DAPI staining based flow cytometric analysis (reference value: 57 %). The class given is functional.
Assay [15] in a line: Cell cycle arrest in human ATRA-resistant NB4-LR2 cells assessed as accumulation of cells at S phase at 2 uM incubated for 12 hrs by DAPI staining based flow cytometric analysis (reference value: 19 %). The class given is functional.
The nature of assay [16]: Cell cycle arrest in human ATRA-resistant NB4-LR2 cells assessed as accumulation of cells at G2/M phase at 2 uM incubated for 12 hrs by DAPI staining based flow cytometric analysis (reference value: 15 %). The class given is functional.
A short description of assay [17]: Cell cycle arrest in human ATRA-resistant NB4-LR2 cells assessed as accumulation of cells at sub-G1 phase at 2 uM incubated for 12 hrs by DAPI staining based flow cytometric analysis (reference value: 9 %). In kind it is functional.
Assay [18] relates to NB-4. The experiment in a line: Cell cycle arrest in human NB4 cells transfected with pLVX-shRXRalpha plasmid assessed as accumulation of cells at S phase at 2 uM incubated for 12 hrs by DAPI staining based flow cytometric analysis (reference value: 19 %). In kind it is functional.
Assay [19] has as its system NB-4. The experiment in a line: Cell cycle arrest in human NB4 cells transfected with pLVX-shPML-RARalpha plasmid assessed as accumulation of cells at G0/G1 phase at 1 uM incubated for 12 hrs by DAPI staining based flow cytometric analysis (reference value: 38 %). In kind it is functional.
Assay [20] concerns ATRA-resistant NB4-LR2. The experiment in a line: Cell cycle arrest in human ATRA-resistant NB4-LR2 cells transfected with pLVX-shRXRalpha assessed as increase in PLK1 expression at 1 uM incubated for 12 hrs by Western blot analysis. In kind it is functional, cell-based.
For assay [21], the system named is ATRA-resistant NB4-LR2. Put plainly: Cell cycle arrest in human ATRA-resistant NB4-LR2 cells transfected with pLVX-shRXRalpha assessed as increase in cyclin B1 expression at 1 uM incubated for 12 hrs by Western blot analysis. The class given is functional, cell-based.
The test system of assay [22] is NB-4. Put plainly: Induction of apoptosis in human NB4 cells assessed as early apoptotic cells at 1 uM incubated for 24 hrs by Annexin V-FITC/PI staining based flow cytometric analysis (reference value: 1.77 %). The class given is functional.
The test system of assay [23] is NB-4. The experiment in a line: Cell cycle arrest in human NB4 cells assessed as accumulation of cells at G0/G1 phase at 1 uM incubated for 12 hrs by DAPI staining based flow cytometric analysis (reference value: 51 %). In kind it is functional.
Assay [24] has as its system NB-4. The experiment in a line: Cell cycle arrest in human NB4 cells assessed as accumulation of cells at G2/M phase at 1 uM incubated for 12 hrs by DAPI staining based flow cytometric analysis (reference value: 26 %). In kind it is functional.
In assay [25] the test system is NB-4. The experiment in a line: Cell cycle arrest in human NB4 cells assessed as accumulation of cells at sub-G1 phase at 1 uM incubated for 12 hrs by DAPI staining based flow cytometric analysis (reference value: 2 %). The class given is functional.
Assay [26] can be described thus: Cell cycle arrest in human ATRA-resistant NB4-LR2 cells assessed as accumulation of cells at S phase at 1 uM incubated for 12 hrs by DAPI staining based flow cytometric analysis (reference value: 12 %). The class given is functional.
Assay [27] can be described thus: Cell cycle arrest in human ATRA-resistant NB4-LR2 cells assessed as accumulation of cells at G2/M phase at 1 uM incubated for 12 hrs by DAPI staining based flow cytometric analysis (reference value: 28 %). In kind it is functional.
The nature of assay [28]: Cell cycle arrest in human ATRA-resistant NB4-LR2 cells assessed as accumulation of cells at sub-G1 phase at 1 uM incubated for 12 hrs by DAPI staining based flow cytometric analysis (reference value: 18 %). The class given is functional.

Calls of active or inactive are those of the source. The calls are words filed in the database; no cut-off is given here.

As for `Cc1cc2c(cc1C(=O)/C(Br)=C\c1ccc(C(=O)O)cc1)C(C)(C)CCC2(C)C`, in assay [1], the “inhibition (INH)” value came to 100%. The result in assay [2], in [8], in [9] and in assay [10] was Active. Moreover, the Activity in [3] is recorded as 69%; in [4], 8%; in [5], 0.52%; in [6], 0.71%; in assay [7], “Minimal_effect”.

As to `Cc1cc2c(cc1C(=O)/C(Br)=C/c1ccc(C(=O)O)cc1)C(C)(C)CCC2(C)C`, in assay [1], the “inhibition (INH)” value is 100%. The result in [2], in assay [8], in assay [9] and in [10] was Active. Moreover, the Activity in assay [3] was determined as 64%; in [4] it was 7%; in assay [5], 1.3%; in assay [6] it was 1%; in [11] it was 38%; in [12], 9%. Also, the Activity in assay [13] is reported as 18%; in assay [7], “Minimal_effect”; in assay [14], 36%; in assay [15], 10%; in assay [16], 22%; in assay [17] it was 32%. Also, the Activity is recorded as 22% in assay [18]; 27% in [19]; 19.18% in assay [22]; 20% in assay [23]; 61% in assay [24]; 5% in [25]. Besides, the results for the Activity in assay [26], in assay [27] and in assay [28] were 16%, 52% and 21%, respectively. The outcome in assay [20] and in assay [21] was inactive.
